The target of this assay is IDH1 R132H (Homo sapiens (Human), UniProt O75874, R132H). As to the kind of experiment: Assays for IDH1 R132H Inhibitors (NADPH/aKG, resazurin detection). The format is biochemical. As to conditions: IDH1 R132H enzyme. The procedure, abridged: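 Mutant enzyme in 150 mM NaCl, 10 mM MgCl2, 20 mM Tris pH 7.5, 0.03% BSA; compound in DMSO added to substrate mix of 8 uM NADPH and 2 mM aKG. Reaction ran 50 min at room temperature, then resazurin detection mix (30 μM) added for 5 min at room temperature.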
(In general: The colour change of resazurin is a common sign of viable cells or microbes.)

The mark [1] stands for this setting: Table 2, read-out: IDHR132H Activity.

The values that follow come from US9662327B2 (AGIOS PHARMACEUTICALS, INC, priority 2011, dated 2017).

Read-outs that look alike come from different tables or passages of the source.

Chain of IDH1 R132H (O75874 whole entry R132H): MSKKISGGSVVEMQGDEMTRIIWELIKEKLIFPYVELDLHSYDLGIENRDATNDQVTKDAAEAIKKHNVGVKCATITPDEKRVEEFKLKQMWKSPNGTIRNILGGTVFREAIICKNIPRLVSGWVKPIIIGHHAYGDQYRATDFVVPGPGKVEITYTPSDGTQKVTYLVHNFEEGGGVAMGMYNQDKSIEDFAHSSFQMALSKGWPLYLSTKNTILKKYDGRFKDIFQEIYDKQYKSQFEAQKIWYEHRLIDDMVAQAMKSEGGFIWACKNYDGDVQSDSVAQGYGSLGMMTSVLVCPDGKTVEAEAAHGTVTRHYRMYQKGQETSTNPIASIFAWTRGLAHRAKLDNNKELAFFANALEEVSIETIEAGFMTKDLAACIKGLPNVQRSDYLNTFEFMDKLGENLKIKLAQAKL

Take `CSCCC(=O)N1CCN(c2nc(C3CC3)c3c(c2C#N)CC(C)(C)OC3)CC1(C)C` [Compound 320, 8-cyclopropyl-6-(3,3-dimethyl-4-(3-(methylthio)propanoyl)piperazin-1-yl)-3,3-dimethyl-3,4-dihydro-1H-pyrano[3,4-c]pyridine-5-carbonitrile]: the IC50 under setting [1] was in the range of 1 to 10 µM.
In the case of `CC(=O)OCC(C)(C)C(=O)N1CCN(c2nc(C3CC3)c3c(c2C#N)CC(C)(C)OC3)C[C@H]1C(C)C` [Compound 419, (R)-3-(4-(5-cyano-8-cyclopropyl-3,3-dimethyl-3,4-dihydro-1H-pyrano[3,4-c]pyridin-6-yl)-2-isopropylpiperazin-1-yl)-2,2-dimethyl-3-oxopropyl acetate], the IC50 under setting [1] fell in the range of 1 to 10 µM.
Same read-out and setting: next, `CC(C)[C@@H]1CN(c2nc(C3CC3)c3c(c2C#N)CC(C)(C)OC3)CCN1C(=O)Cn1ccc2ccccc21` [Compound 406, (R)-6-(4-(2-(1H-indol-1-yl)acetyl)-3-isopropylpiperazin-1-yl)-8-cyclopropyl-3,3-dimethyl-3,4-dihydro-1H-pyrano[3,4-c]pyridine-5-carbonitrile]: 1 to 10 µM; `CC(C)[C@@H]1CN(c2nc(C3CC3)c3c(c2C#N)CC(C)(C)OC3)CCN1C(=O)NC1CC1` [Compound 398, (R)-4-(5-cyano-8-cyclopropyl-3,3-dimethyl-3,4-dihydro-1H-pyrano[3,4-c]pyridin-6-yl)-N-cyclopropyl-2-isopropylpiperazine-1-carboxamide]: 1 to 10 µM.
Take `CCCCNC(=O)C(=O)CCC(=O)N1CCN(c2nc(C3CC3)c3c(c2C#N)CC(C)(C)OC3)C[C@H]1C(C)C` [Compound 467, (R)—N-butyl-5-(4-(5-cyano-8-cyclopropyl-3,3-dimethyl-3,4-dihydro-1H-pyrano[3,4-c]pyridin-6-yl)-2-isopropylpiperazin-1-yl)-2,5-dioxopentanamide]: the IC50 (Table 3, read-out: R132H IC50) lay within 0.5 to 1 µM.
With `CC(C)c1nc(N2CCN(C(=O)c3cnc4ccccn34)[C@H](C)C2)c(C#N)c2c1COC(C)(C)C2` [Compound 222, (R)-6-(4-(imidazo[1,2-a]pyridine-3-carbonyl)-3-methylpiperazin-1-yl)-8-isopropyl-3,3-dimethyl-3,4-dihydro-1H-pyrano[3,4-c]pyridine-5-carbonitrile], under setting [1], the IC50 was in the range of 1 to 10 µM.
Regarding `CC1(C)Cc2c(C#N)c(N3CCN(C(=O)c4ccoc4)C(c4ccccc4)C3)nc(C3CC3)c2CO1` (stereo not drawn) [Compound 156], the IC50 under setting [1] lay in the range of 1 to 10 µM.
The same measure, in the same setting: with `CC[C@@H]1CN(c2nc(C3CC3)c3c(c2C#N)CC(C)(C)OC3)CCN1C(=O)Cc1cccnc1` [Compound 294] the figure was 0.5 to 1 µM.
Same read-out and setting: next, `N#Cc1c(N2CCN(C(=O)C3CC3)CC2)nc(C2CCCCC2)c2c1CCOC2` [Compound 141, 8-cyclohexyl-6-(4-(cyclopropanecarbonyl)piperazin-1-yl)-3,4-dihydro-1H-pyrano[3,4-c]pyridine-5-carbonitrile]: 1 to 10 µM; `CC(C)c1nc(N2CCN(C(=O)c3ccoc3)[C@@H](c3ccccc3)C2)c(C#N)c2c1COC(C)(C)C2` [Compound 257, (S)-6-(4-(furan-3-carbonyl)-3-phenylpiperazin-1-yl)-8-isopropyl-3,3-dimethyl-3,4-dihydro-1H-pyrano[3,4-c]pyridine-5-carbonitrile]: 1 to 10 µM; `Cc1ccoc1C(=O)N1CCN(c2nc(C(C)C)c3c(c2C#N)CC(C)(C)OC3)C[C@H]1C` [Compound 173, (R)-8-isopropyl-3,3-dimethyl-6-(3-methyl-4-(3-methylfuran-2-carbonyl)piperazin-1-yl)-3,4-dihydro-1H-pyrano[3,4-c]pyridine-5-carbonitrile]: 1 to 10 µM.
`Cc1occc1C(=O)N1CCN(c2nc(C3CC3)c3c(c2C#N)CC(C)(C)OC3)CC1(C)C` [Compound 321]: the IC50 under setting [1] was in the range of 1 to 10 µM.
As to `CC(C)c1nc(N2CCN(C(=O)c3ccoc3)CC2c2ccccc2)c(C#N)c2c1COC(C)(C)C2` (stereo not drawn) [Compound 178, 6-(4-(furan-3-carbonyl)-2-phenylpiperazin-1-yl)-8-isopropyl-3,3-dimethyl-3,4-dihydro-1H-pyrano[3,4-c]pyridine-5-carbonitrile], under setting [1], the IC50 is 1 to 10 µM.
The same measure, in the same setting: next, `CC(C)c1nc(N2CCN(C(=O)c3ccco3)C[C@@H]2C)c(C#N)c2c1COC(C)(C)C2` [Compound 202, (S)-6-(4-(furan-2-carbonyl)-2-methylpiperazin-1-yl)-8-isopropyl-3,3-dimethyl-3,4-dihydro-1H-pyrano[3,4-c]pyridine-5-carbonitrile]: 1 to 10 µM.
Turning to `CC(C)[C@@H]1CN(c2nc(C3CC3)c3c(c2C#N)CC(C)(C)OC3)CCN1C(=O)COc1cccnc1` [Compound 399, (R)-8-cyclopropyl-6-(3-isopropyl-4-(2-(pyridin-3-yloxy)acetyl)piperazin-1-yl)-3,3-dimethyl-3,4-dihydro-1H-pyrano[3,4-c]pyridine-5-carbonitrile], the IC50 under setting [1] lay in the range of 1 to 10 µM.
For `Cc1cc(C(=O)N2CCN(c3nc(C(C)C)c4c(c3C#N)CC(C)(C)OC4)C[C@H]2C)c(C)o1` [Compound 196, (R)-6-(4-(2,5-dimethylfuran-3-carbonyl)-3-methylpiperazin-1-yl)-8-isopropyl-3,3-dimethyl-3,4-dihydro-1H-pyrano[3,4-c]pyridine-5-carbonitrile], the IC50 under setting [1] is 1 to 10 µM.
The same measure, in the same setting: next, `CCCOCC(=O)N1CCN(c2nc(C3CC3)c3c(c2C#N)CC(C)(C)OC3)C[C@H]1C(C)C` [Compound 381]: 0.5 to 1 µM; `CC(=O)OCCCN1CCN(c2nc(C3CC3)c3c(c2C#N)CC(C)(C)OC3)C[C@H]1C(C)C` [Compound 322]: 1 to 10 µM.
Same read-out and setting: with `CC(C)c1nc(N2CCN(C(=O)Cc3cccc(Cl)c3)[C@H](C)C2)c(C#N)c2c1COC(C)(C)C2` [Compound 161, (R)-6-(4-(2-(3-chlorophenyl)acetyl)-3-methylpiperazin-1-yl)-8-isopropyl-3,3-dimethyl-3,4-dihydro-1H-pyrano[3,4-c]pyridine-5-carbonitrile] the figure was 1 to 10 µM; with `CC(C)[C@@H]1CN(c2nc(C3CC3)c3c(c2C#N)CC(C)(C)OC3)CCN1C(=O)Cc1ccccc1F` [Compound 228], 1 to 10 µM; with `COCCC(=O)N1[C@H](C)CN(c2nc(C3CC3)c3c(c2C#N)CC(C)(C)OC3)C[C@@H]1C` [Compound 356], 1 to 10 µM.
The same measure, in the same setting: with `CC(C)c1nc(N2CCN(C(=O)c3ccco3)CC2)c(C#N)c2c1CC(C)(C)CC2` [Compound 116, 3-(4-(furan-2-carbonyl)piperazin-1-yl)-1-isopropyl-7,7-dimethyl-5,6,7,8-tetrahydroisoquinoline-4-carbonitrile] the figure was 1 to 10 µM; with `C[C@@H]1CN(c2nc(C3CCCCC3)c3c(c2C#N)CCOC3)CCN1C(=O)c1ccco1` [Compound 162, (R)-8-cyclohexyl-6-(4-(furan-2-carbonyl)-3-methylpiperazin-1-yl)-3,4-dihydro-1H-pyrano[3,4-c]pyridine-5-carbonitrile], 1 to 10 µM.
In the case of `CC[C@@H]1CN(c2nc(C(C)C)c3c(c2C#N)CC(C)(C)OC3)CCN1C(=O)c1ccoc1C` [Compound 207, (R)-6-(3-ethyl-4-(2-methylfuran-3-carbonyl)piperazin-1-yl)-8-isopropyl-3,3-dimethyl-3,4-dihydro-1H-pyrano[3,4-c]pyridine-5-carbonitrile], under setting [1], the IC50 was under 0.5 µM.
In the case of `COCCC(=O)N1CCN(c2nc(C3CC3)c3c(c2C#N)CC(C)(C)OC3)CC1C(F)F` (stereo not drawn) [Compound 464], the IC50 (Table 3, read-out: R132H IC50) was in the range of 0.5 to 1 µM.
On to `N#Cc1c(N2CCN(C(=O)c3ccoc3)CC2)nc(C2CCCCC2)c2c1CCOC2` [Compound 120, 8-cyclohexyl-6-(4-(furan-3-carbonyl)piperazin-1-yl)-3,4-dihydro-1H-pyrano[3,4-c]pyridine-5-carbonitrile], for which the IC50 under setting [1] fell in the range of 1 to 10 µM.
Regarding `C[C@@H]1CN(c2nc(C3CCCCC3)c3c(c2C#N)CCOC3)CCN1C(=O)C1CC1` [Compound 375, (R)-8-cyclohexyl-6-(4-(cyclopropanecarbonyl)-3-methylpiperazin-1-yl)-3,4-dihydro-1H-pyrano[3,4-c]pyridine-5-carbonitrile], under setting [1], the IC50 is 1 to 10 µM.
Still for that read-out and setting: next, `CCOC(=O)C1CN(c2nc(C(C)C)c3c(c2C#N)CC(C)(C)OC3)CCN1C(=O)c1ccoc1` (stereo not drawn) [Compound 276]: 0.5 to 1 µM; `COc1ccccc1CC(=O)N1CCN(c2nc(C(C)C)c3c(c2C#N)CC(C)(C)OC3)C[C@H]1C` [Compound 199, (R)-8-isopropyl-6-(4-(2-(2-methoxyphenyl)acetyl)-3-methylpiperazin-1-yl)-3,3-dimethyl-3,4-dihydro-1H-pyrano[3,4-c]pyridine-5-carbonitrile]: 1 to 10 µM.
Same read-out and setting: with `CC(C)c1nc(N2C[C@@H](C)N(C(=O)NC3CCCCC3)[C@@H](C)C2)c(C#N)c2c1CCCC2` [Compound 109, (2S,6R)-4-(4-cyano-1-isopropyl-5,6,7,8-tetrahydroisoquinolin-3-yl)-N-cyclohexyl-2,6-dimethylpiperazine-1-carboxamide] the figure was 1 to 10 µM; with `C[C@@H]1CN(c2nc(C3CCCCC3)c3c(c2C#N)CCOC3)CCN1C(=O)CCl` [Compound 340, (R)-6-(4-(2-chloroacetyl)-3-methylpiperazin-1-yl)-8-cyclohexyl-3,4-dihydro-1H-pyrano[3,4-c]pyridine-5-carbonitrile], under 0.5 µM; with `C[C@@H]1CN(c2nc(C3CCCCC3)c3c(c2C#N)CCOC3)CCN1C(=O)c1ccsc1` [Compound 242, (R)-8-cyclohexyl-6-(3-methyl-4-(thiophene-3-carbonyl)piperazin-1-yl)-3,4-dihydro-1H-pyrano[3,4-c]pyridine-5-carbonitrile], 1 to 10 µM.
Same read-out and setting: with `CC(C)c1nc(N2CCN(C(=O)c3csc4ccccc34)[C@H](C)C2)c(C#N)c2c1COC(C)(C)C2` [Compound 247, (R)-6-(4-(benzo[b]thiophene-3-carbonyl)-3-methylpiperazin-1-yl)-8-isopropyl-3,3-dimethyl-3,4-dihydro-1H-pyrano[3,4-c]pyridine-5-carbonitrile] the figure was 1 to 10 µM.
